Calls of active or inactive are those of the source. No cut-off for these calls is given here.
Assays:
[1] = test system: Human immunodeficiency virus; assay: Antiviral activity against HIV assessed as inhibition of viral replication; type: functional, organism-based
[2] = Selectivity ratio, ratio of CC50 for Huh5.2 cells to IC50 for HCV infected in Huh5.2 cells; type: cell-based; conditions: human, Huh5.2 cells (CC50) and HCV-infected Huh5.2 cells (IC50)
[3] = Cytotoxicity against human HuH5.2 cells; type: cell-based, Huh-5-2
[4] = test system: Hepatitis C virus; assay: Antiviral activity against HCV infected in Huh5.2 cells assessed as inhibition of viral replication by luciferase reporter gene assay; type: functional, organism-based, Hepacivirus hominis; conditions: Huh-5-2
[5] = test system: Hepatitis C virus; assay: Antiviral activity against HCV infected in Huh5.2 cells assessed as concentration required to inhibit viral replication without causing an antimetabolic effect; type: functional, Hepacivirus hominis

IC50 [4] | Compound | Activity [1] | selectivity ratio [2] | CC50 [3] | Imax [5]
29 µM | O=c1ccn(Cc2cn(CP(=O)(O)O)nn2)c(=O)[nH]1 | inactive | 4.42 | 131 µM | –
> 35 µM | Nc1ncnc2c1ncn2Cc1cn(CCP(=O)(O)O)nn1 | inactive | < 1 | 35 µM | –
26 µM | Cc1cn(Cc2cn(CP(=O)(O)O)nn2)c(=O)[nH]c1=O | inactive | > 13 | > 300 µM | –
20 µM | Cc1cn(Cc2cn(CCP(=O)(O)O)nn2)c(=O)[nH]c1=O | inactive | > 15 | > 300 µM | 79.28%
16 µM | Nc1ncnc2c1ncn2Cc1cn(CP(=O)(O)O)nn1 | inactive | > 20 | > 300 µM | 80.65%
16 µM | O=c1ccn(Cc2cn(CCP(=O)(O)O)nn2)c(=O)[nH]1 | inactive | > 20 | > 300 µM | 75.47%

Reference: ChEMBL document CHEMBL1287757, “Straightforward synthesis of triazoloacyclonucleotide phosphonates as potential HCV inhibitors” (Bioorg Med Chem Lett, 2010)
